Results published in patent publication US20260356856A1, “KRAS G12S AND G12C INHIBITORS” (MIRATI THERAPEUTICS, INC., priority 2023, published 2026).

Columns and labels:
[1] = biological target: T1, KRas G12C (Homo sapiens, UniProt P01116, G12C); experiment: KRas binding assay, TR-FRET displacement of Cy5 labelled tracer; details: 60-minute incubation at room temperature, 1% DMSO, pH 7.5
T1 construct: Biotinylated KRas (corresponding to amino acids 1-169, produced at Accelegan Inc.); biotin (biotinylated); purchased Accelegan Inc
Method in brief: (§1)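 Room-temperature incubation (60 min) of compound with biotinylated KRas 1-169, tracer and Tb-streptavidin preceded the TR-FRET read. Final DMSO was 1%; buffer pH 7.5. Percent-of-control values went into a 4-parameter equation to give IC50.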

[2] = biological target: T2, KRas G12S (Homo sapiens, UniProt P01116, G12S); experiment: as above; details: 60-minute incubation at room temperature, 1% DMSO, pH 7.5
T2 construct: Biotinylated KRas (corresponding to amino acids 1-169, produced at Accelegan Inc.); biotin (biotinylated); purchased Accelegan Inc
Method in brief: as §1

[3] = biological target: T3, KRas WT (Homo sapiens, UniProt P01116); experiment: as above; details: 60-minute incubation at room temperature, 1% DMSO, pH 7.5
T3 construct: Biotinylated KRas (corresponding to amino acids 1-169, produced at Accelegan Inc.); biotin (biotinylated); purchased Accelegan Inc
Method in brief: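 Biotinylated KRas (residues 1-169) was incubated with tracer, terbium-streptavidin and compound at 1% DMSO final in 50 mM HEPES pH 7.5 containing 5 mM MgCl2, 0.005% Tween-20 and 1 mM DTT. The plate was read after 60 min at room temperature, and percent-of-control data were fit to a 4-parameter IC50 equation.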

[4] = biological target: T4, KRas-mediated phosphorylation of ERK in A549 cells (Homo sapiens, UniProt P01116, G12S); experiment: Inhibition of KRas-mediated phosphorylation of ERK (HTRF), A549 cells; assay type: cell-based; details: HTRF pERK, 3 h incubation
T4 construct: pERK HTRF read-out

[5] = biological target: T5, KRas-mediated phosphorylation of ERK in MKN1 cells (Homo sapiens, UniProt P01116); experiment: Inhibition of KRas-mediated phosphorylation of ERK (HTRF), MKN1 cells; assay type: cell-based; details: MKN1 cells (KRas WT); HTRF pERK; 3 h incubation
T5 construct: pERK HTRF read-out
Experimental: Inhibition of KRas Phosphorylation of ERK (HTRF) by Exemplary Compounds of Formula (Ia) or (Ib)
Cisbio HTRF Advanced pERK Assay Catalog #64AERPEH • Cells: MKN1, PSN1 • Procedure: • 1. Day 1: Seed 6,000 cells/well −25 μl/well in 384-well white solid bottom plate; RPM1_10% FBS. Incubate overnight at 37 °C/5% CO2. • 2.

T2 sequence (P01116 1-169 isoform P01116-2 G12S): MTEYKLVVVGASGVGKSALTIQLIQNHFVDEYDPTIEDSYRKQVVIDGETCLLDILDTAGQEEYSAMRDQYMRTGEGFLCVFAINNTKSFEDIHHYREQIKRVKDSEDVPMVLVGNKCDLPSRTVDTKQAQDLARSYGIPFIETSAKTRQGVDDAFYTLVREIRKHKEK
T5 sequence (P01116 1-188 isoform P01116-2): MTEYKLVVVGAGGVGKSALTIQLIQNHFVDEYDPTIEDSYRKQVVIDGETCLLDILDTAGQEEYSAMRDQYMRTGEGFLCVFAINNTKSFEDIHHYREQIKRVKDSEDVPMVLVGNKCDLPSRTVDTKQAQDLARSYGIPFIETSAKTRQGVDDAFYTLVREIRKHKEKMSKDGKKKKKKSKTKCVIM
T4 sequence (P01116 1-188 isoform P01116-2 G12S): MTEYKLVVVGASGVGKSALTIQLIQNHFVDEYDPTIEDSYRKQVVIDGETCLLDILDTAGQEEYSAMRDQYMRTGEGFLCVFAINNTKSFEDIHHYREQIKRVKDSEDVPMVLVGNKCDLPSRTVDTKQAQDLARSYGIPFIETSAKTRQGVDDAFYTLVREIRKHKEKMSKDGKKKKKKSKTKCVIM
T3 sequence (P01116 1-169 isoform P01116-2): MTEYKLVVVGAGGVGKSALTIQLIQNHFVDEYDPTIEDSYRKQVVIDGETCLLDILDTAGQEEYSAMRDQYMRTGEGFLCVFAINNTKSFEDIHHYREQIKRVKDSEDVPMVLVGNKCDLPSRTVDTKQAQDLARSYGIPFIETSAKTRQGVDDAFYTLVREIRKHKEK
T1 sequence (P01116 1-169 isoform P01116-2 G12C): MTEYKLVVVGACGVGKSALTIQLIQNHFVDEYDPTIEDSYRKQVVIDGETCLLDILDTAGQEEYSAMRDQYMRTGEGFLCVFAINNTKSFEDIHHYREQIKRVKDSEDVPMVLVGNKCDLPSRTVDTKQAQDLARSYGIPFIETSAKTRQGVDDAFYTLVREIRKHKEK

Row | SMILES | IC50 [1] [nM] | IC50 [2] [nM] | IC50 [3] [nM] | IC50 [4] [nM] | IC50 [5] [nM]
1 | CCc1c(F)ccc2cc(O)cc(-c3ncc4c(NC[C@@H]5C[C@H]5C(=O)n5ccc(C)n5)nc(OC[C@@]56CCCN5C[C@H](F)C6)nc4c3F)c12 [Example 158, ((1R,2R)-2-(((7-(8-ethyl-7-fluoro-3-hydroxynaphthalen-1-yl)-8-fluoro-2-(((2R,7aS)-2-fluorotetrahydro-1H-pyrrolizin-7a(5H)-yl)methoxy)pyrido[4,3-d]pyrimidin-4-yl)amino)methyl)cyclopropyl)(3-methyl-1H-pyrazol-1-yl)methanone] | 29 | 23 | 13 | 126 | 112
2 | C#CCC1(C(=O)n2ccc(C)n2)CCN(c2nc(OC[C@@]34CCCN3C[C@H](F)C4)nc3c(F)c(-c4cc(O)cc5ccc(F)c(CC)c45)ncc23)C1 (stereo partly drawn) [Example 108, (1-(7-(8-ethyl-7-fluoro-3-hydroxynaphthalen-1-yl)-8-fluoro-2-(((2R,7aS)-2-fluorotetrahydro-1H-pyrrolizin-7a(5H)-yl)methoxy)pyrido[4,3-d]pyrimidin-4-yl)-3-(prop-2-yn-1-yl)pyrrolidin-3-yl)(3-methyl-1H-pyrazol-1-yl)methanone] | 339 | 1320 | 1040 | 2000 | > 10000
3 | CCc1c(F)ccc2cc(O)cc(-c3ncc4c(N5CC6CCC(C(=O)n7ccc(C)n7)(C6)C5)nc(OC[C@@]56CCCN5C[C@H](F)C6)nc4c3F)c12 (stereo partly drawn) [Example 106, (3-(7-(8-ethyl-7-fluoro-3-hydroxynaphthalen-1-yl)-8-fluoro-2-(((2R,7aS)-2-fluorotetrahydro-1H-pyrrolizin-7a(5H)-yl)methoxy)pyrido[4,3-d]pyrimidin-4-yl)-3-azabicyclo[3.2.1]octan-1-yl)(3-methyl-1H-pyrazol-1-yl)methanone] | 22 | 14 | 40 | 584 | 529
4 | Cc1ccn(C(=O)C23CC(CNc4nc(OC[C@@]56CCCN5C[C@H](F)C6)nc5c(F)c(-c6ccc(F)c7sc(N)c(C#N)c67)c(Cl)cc45)(C2)C3)n1 [Example 184, 2-amino-4-(6-chloro-8-fluoro-2-(((2R,7aS)-2-fluorotetrahydro-1H-pyrrolizin-7a(5H)-yl)methoxy)-4-(((3-(3-methyl-1H-pyrazole-1-carbonyl)bicyclo[1.1.1]pentan-1-yl)methyl)amino)quinazolin-7-yl)-7-fluorobenzo[b]thiophene-3-carbonitrile] | 5 | 6 | 27 | 115 | 1500
5 | CCc1c(F)ccc2cc(O)cc(N3CCc4c(nc(OC[C@@]56CCCN5C[C@H](F)C6)nc4N(C)CCCC(=O)n4ccc(C)n4)C3)c12 [Example 194, 4-((7-(8-ethyl-7-fluoro-3-hydroxynaphthalen-1-yl)-2-(((2R,7aS)-2-fluorotetrahydro-1H-pyrrolizin-7a(5H)-yl)methoxy)-5,6,7,8-tetrahydropyrido[3,4-d]pyrimidin-4-yl)(methyl)amino)-1-(3-methyl-1H-pyrazol-1-yl) butan-1-one] | 4 | 7 | 209 | 130 | 766
6 | Cc1ccn(C(=O)[C@H]2CCN(c3nc(OC[C@@]45CCCN4C[C@H](F)C5)nc4c(F)c(-c5ccc(F)c6sc(N)c(C#N)c56)c(Cl)cc34)C[C@H]2C)n1 [Example 185, 2-amino-4-(6-chloro-8-fluoro-2-(((2R,7aS)-2-fluorotetrahydro-1H-pyrrolizin-7a(5H)-yl)methoxy)-4-((cis)-3-methyl-4-(3-methyl-1H-pyrazole-1-carbonyl)piperidin-1-yl)quinazolin-7-yl)-7-fluorobenzo[b]thiophene-3-carbonitrile] | 18 | 12 | 6 | 250 | 65
